In patent US12326385B2, “Cell-permeable fluorogenic fluorophores” (MAX-PLANCK-GESELLSCHAFT ZUR FÖRDERUNG DER WISSENSCHAFTEN E. …, priority 2018, dated 2025):
Marks after values point to notes of the source that are not given here.

How the values were obtained:
[1] = UV-Vis and fluorescence spectroscopy of free dye or probe in buffer or SDS; format: physicochemical
Method: UV-Vis and Fluorescence Spectroscopy
Spectroscopy was performed using 96-well plate (Thermo Fisher) with optical bottom. All measurements were taken at ambient temperature (25±2° C.). Absorption and fluorescence spectra were recorded on Spark® microplate reader (Tecan). Maximum absorption wavelength (λabs), and maximum emission wavelength (λem) were taken in 10 mM HEPES, pH 7.3 buffer unless otherwise noted; reported values for ε are averages (n=3). Normalized spectra are shown for clarity.
(§1) SDS (10% in 10 mM HEPES) was added with dilution of 100 folds as a control group. Absorbance and fluorescence measurements were performed in 96-well plate (Thermos Fisher) with optical bottom.

[2] = UV absorbance spectra in water-dioxane mixtures (D50); format: physicochemical; conditions: dioxane-H2O mixture (v/v: 90/10-10/90), dielectric constant at half-maximal zwitterion absorbance
From the text: The inventors' efforts to improve the permeability and fluorogenicity of rhodamine derivatives for live-cell imaging focused on increasing the propensity of rhodamines to form the spirocyclic, non-fluorescent form without affecting the spectroscopic properties of the parental molecule. The inventors initially considered replacing the carboxylic acid responsible for formation of the spirolactone with an amide. However, such rhodamine derivatives have been reported to strongly favor spirolactams at physiological pH, making them unsuitable for live-cell imaging. The inventors therefore attempted to destabilize the spirolactam by attaching different electron-withdrawing groups to the underlying amides. Specifically, the inventors converted 6-carboxytetramethylrhodamine (6-TAMRA), a widely used fluorophore with good photophysical properties, into the corresponding acyl cyanamide (132), acyl sulfonamide (133) and acyl sulfamide (134 and 135), (FIG. 32c). The acyl cyanamide of rhodamine B was previously reported to exist as a fluorescent zwitterion at physiological pH. Acyl sulfonamides and acyl sulfamides are used in medicinal chemistry as anionic pharmacophores. Amides 132-135 were prepared in three simple steps from commercially available 6-TAMRA (FIG. 32c). To investigate the propensity of these amides to form the corresponding spirolactams, the inventors measured their absorbance spectra in water-dioxane mixtures with […]. The equilibrium between the zwitterionic and spirocyclic form can then be characterized by the D50 value, which is defined as the dielectric constant at which absorbance of the fluorescent zwitterion is decreased by half compared to the highest recorded absorbance value measured in dioxane-water mixtures. […] In comparison, the D50 value of TAMRA is around 10 showing that in aqueous solution TAMRA exists predominantly in its open form and TAMRA-based probes are usually not fluorogenic. The measured D50 values of amides 132-135 ranged from 32 to around 60 (FIG. 32d), which indicates the potential of these fluorophores for the generation of permeable and fluorogenic probes. […] The possibility to tune the equilibrium between the open and closed form of the fluorophore by varying the substituents on the amide is an important feature of this approach.
Measurements of UV Absorbance Spectra in Water-Dioxane Mixtures
Solutions of 5 μM Rhodamine B, RhB-CH3 (201, Z=CH3), RhB-Ben (201, Z=CH2Ph), RhB-CN (201, Z=CN), RhB-SCH3 (115), RhB-SNH2 (116), RhB-SNMe2 (117), RhB-CONH2 (118), WS1-SCF3, (119) WS1-SCH3 (120), WS1-CN (121), WS1-SNH2 (122), WS1-SO (123), WS1-UREA (124) in water-dioxane mixtures containing 10%, 20%, 30%, 40%, 50%, 60%, 70%, 80% and 90% of dioxane (by volume) were prepared. The absorbance spectra were recorded using a Spark® microplate reader (Tecan). The spectra were integrated from 400 to 700 nm for Rhodamine B-based fluorophores and from 350 to 750 nm for WS1-based fluorophores using the software Prism 7. Normalized integrals were plotted against dielectric constant of water-dioxane mixture.

SNAP-Halo-tag = test: Increase in absorbance and fluorescence on binding to SNAP-HaloTag protein in vitro; format: biochemical; conditions: for Φ / ε^protein / λabs / λem: binding with SNAP-Halo-tag; for F/F0: ± s.e.m.
Method: Measurement of Increase in Absorbance and Fluorescence.
SNAP-HaloTag protein were used as a 85 μM-200 μM solution in 75 mM NaCl, 50 mM TRIS-HCl, pH 7.4 with 50% v/v glycerol (TBS-glycerol). SNAPTag and HaloTag based fluorogenic probes were diluted to 1.0-2.0 μM in 10 mM HEPES, pH 7.3. Then an aliquot of SNAPTag/HaloTag protein (1.5-2.0 equiv) was added and the resulting mixture was incubated until consistent absorbance signal was observed (˜60 min).
as §1

[3] = system: U2OS FlpIn Halo-SNAP-NLS expressing cells; test: No-wash live-cell confocal imaging, nuclear versus cytosol signal; format: cell-based; conditions: for Fnuc./Fcyt.: average ratio between nuclear signal (U2OS FlpIn Halo-SNAP-NLS expressing cells) and cytosol signal (normal U2OS cell), ± s.e.m.; for nuclei to cytosol signal ratio (Fnuc/Fcyt): no-wash live-cell imaging, U2OS cells, 250 nM for MaP555-SNAP and MaP700-Halo; for time to staining / saturation / completion of labeling: nuclear localized HaloTag in U2OS cells, 250 nM for MaP510-Halo and MaP700-Halo
From the text: Self-labeling protein tags such as SNAP-tag and HaloTag are an efficient approach to attach synthetic fluorophores to proteins in living cells. The main challenge when using these tags for live-cell imaging is the low cell permeability of most fluorescent probes used for labeling and high background signal resulting from their unspecific binding. SNAP-tag fusion proteins can be specifically labeled with different fluorophores using appropriate O^6-benzlyguanine derivatives. A 6-TAMRA based probe (150) for SNAP-tag has been previously introduced for live-cell imaging, but its low cell-permeability and lack of fluorogenicity requires the use of high concentrations (5 μM) and repeated washing steps to remove excess and non-specifically bound probe. To address these problem, the inventors coupled fluorophores 132-135 to O^6-benzylguanine to obtain probes 152, 154, 156, and 158. […] The inventors then examined the performance of probes 150, 152, 154, 156, and 158 in live-cell imaging, in which U2OS cells stably expressing a nuclear localized SNAP-Halo fusion protein were co-cultured with regular U2OS cells not expressing any protein tags. […] Furthermore, the kinetics of labeling of nuclear localized SNAP-tag with MaP555-SNAP were much faster than those of control […]. The inventors then prepared the corresponding 6-TAMRA-based probes 151, 153, 155, 157, and 159 for HaloTag. As for SNAP-tag, the probe with the largest enhancement in absorbance (16-fold) and fluorescence intensity (35-fold) in in vitro assays was based on the N,N-dimethylsulfamide derivative 159 (abbreviated as MaP555-Halo in the following). […] The excellent performance of MaP555-SNAP and MaP555-Halo in live-cell imaging experiments support the inventors' assumption that establishing a dynamic equilibrium between the fluorescent zwitterion and the more hydrophobic spirolactam enables the generation of highly cell-permeable and fluorogenic probes for live-cell imaging.
Generation of U2OS FlpIn Halo-SNAP-NLS Cell Lines
The Flp-In™ System (ThermoFisher Scientific) was used to generated U2OS FlpIn Halo-SNAP-NLS expressing cells. pcDNA5-FRT-Halo-SNAP-NLS and pOG44 were co-transfected into the host cell line U2OS FLpIn (Malecki et al. Molecular and Cellular Biology 26, 4642 (2006)). Homologous recombination between the FRT sites in pcDNA5-FRT-Halo-SNAP-NLS and on the host cell chromosome, catalysed by the Flp recombinase expressed from pOG44, produced the U2OS FlpIn Halo-SNAP-NLS stably expressing cells.
Live-Cell Confocal Imaging
U2OS FlpIn Halo-SNAP-NLS expressing cells were grown in 96-well plate (Thermos Fisher) with optical bottom at 37° C. in a humidified 5% (vol/vol) CO2 environment. 50-500 nM probes and 2 μM verapamil were added and incubated for 1 h in DMEM media (Evrogen) containing 10% FBS. The cells were directly used to image without washing. Meanwhile, another group was imaged after being washed 2 times for 5 min with 1× phosphate buffered saline (PBS, pH 7.4) and DMEM supplemented with 10% FBS. Imaging was performed using Leica TCS SP8 confocal microscope. TMR- and Rhodamine B—, and Rhodamine 110-based probes were excited at 540 nm and the fluorescence signal was collected from 560-700 nm. Semi-Rhodamine-based probes were excited at 650 nm and the fluorescence signal was […] from 670-760 nm. Images were processed with Fiji (http://fiji.sc/wiki/index.php/Fiji) to obtain MIP (maximum intensity projections)

[4] = 0.1% SDS in HEPES buffer (pH 7.3)
[5] = ratio of fluorescence intensities at 635 nm in the presence and absence of SNAP-Halo-tag
[6] = upon binding to HaloTag, in vitro

SMILES | Φ [1, 4] | Φ ([1]; HEPES buffer (pH 7.3)) | ε ([1]; HEPES buffer (pH 7.3)) | λabs ([1]; HEPES buffer (pH 7.3)) [nm] | λem ([1]; HEPES buffer (pH 7.3)) [nm] | D50 [2] | Φ (SNAP-Halo-tag) | also measured
CN(C)c1ccc2c(-c3cc(C(=O)[O-])ccc3C(=O)O)c3ccc(=[N+](C)C)cc-3oc2c1 [6-TAMRA, 6-carboxytetramethylrhodamine, reference compound] | 0.39 | 0.43 | 84,000^a M^−1cm^−1 | 550 | 578 | 12^d |  | D50 ([2]; listed as TAMRA): around 10
Cl.N=c1ccc2c(-c3ccccc3C(=O)O)c3ccc(N)cc3oc-2c1 [R110, Rhodamine 110, reference compound] |  |  |  |  |  | 15 |  | 
CN(C)S(=O)(=O)N1C(=O)c2ccc(C(=O)O)cc2C12c1ccc(N)cc1Oc1cc(N)ccc12 [compound 21] | 0.69 | 0.68 | 74,000^a M^−1cm^−1 | 502 | 526 | 70^d |  | D50 ([2]; listed as MaP510): 70
CN1CCc2cc3c(cc21)[Si](C)(C)c1cc2c(cc1C31OC(=O)c3ccc(C(=O)O)cc31)CCN2C [compound 35, reference compound] | 0.16 |  | 104,000^a M^−1cm^−1 | 694 | 718 | 54^d | 0.17 | 
CN(C)c1ccc2c(c1)Oc1cc(N(C)C)ccc1C21c2cc(C(=O)O)ccc2C(=O)N1C#N [compound 132] | 0.45^a/0.45^c | 0.45^a/0.45^c | 89,000^a M^−1cm^−1 | 552 | 580 | 32^d |  | 
CN(C)c1ccc2c(c1)Oc1cc(N(C)C)ccc1C21c2cc(C(=O)O)ccc2C(=O)N1S(C)(=O)=O [compound 133] | 0.46 | 0.43 | 89,000^a M^−1cm^−1 | 553 | 580 | 44^d |  | 
CN(C)c1ccc2c(c1)Oc1cc(N(C)C)ccc1C21c2cc(C(=O)O)ccc2C(=O)N1S(N)(=O)=O [compound 134] | 0.44^a/0.44^c | 0.44^a/0.44^c | 83,000^a M^−1cm^−1 | 552 | 580 | 57^d |  | 
CN(C)c1ccc2c(c1)Oc1cc(N(C)C)ccc1C21c2cc(C(=O)O)ccc2C(=O)N1S(=O)(=O)N(C)C [compound 135] | 0.43 | 0.4 | 88,000^a M^−1cm^−1 | 553 | 580 | 58^d |  | 
CN1CCc2cc3c(cc21)[Si](C)(C)c1cc2c(cc1C31c3cc(C(=O)O)ccc3C(=O)N1C#N)CCN2C [compound 140] |  |  | 8,200^a M^−1cm^−1 | 698 | 720 | >75^d |  | 
CN(C)c1ccc2c(c1)C(C)(C)c1cc(N(C)C)ccc1C21c2cc(C(=O)NCCOCCOCCCCCCCl)ccc2C(=O)N1S(N)(=O)=O [compound 165] |  |  | 440 M⁻¹ cm⁻¹ |  |  |  | 0.58^b/— | ε^SDS [1, 4]: 8,300^c M^−1cm^−1; ε^protein (SNAP-Halo-tag): 101,000 M^−1cm^−1; λabs (SNAP-Halo-tag): 618 nm; λem (SNAP-Halo-tag): 635 nm; F/F0 (SNAP-Halo-tag; [5]): 611 ± 42^e; Fnuc./Fcyt. [3]: 30 ± 4.5^f
CN(C)c1ccc2c(c1)C(C)(C)c1cc(N(C)C)ccc1C21c2cc(C(=O)NCCOCCOCCCCCCCl)ccc2C(=O)N1S(=O)(=O)N(C)C [compound 167] |  |  | 260 M⁻¹ cm⁻¹ |  |  |  | 0.61^b/— | ε^SDS [1, 4]: 7,200^c M^−1cm^−1; ε^protein (SNAP-Halo-tag): 107,000 M^−1cm^−1; λabs (SNAP-Halo-tag): 618 nm; λem (SNAP-Halo-tag): 635 nm; F/F0 (SNAP-Halo-tag; [5]): 1000 ± 44^e; increase in fluorescence intensity (SNAP-Halo-tag; [6]): 1000 fold; Fnuc./Fcyt. [3]: 58 ± 3.9^f; nuclei to cytosol signal ratio (Fnuc/Fcyt) [3]: 58; time to staining / saturation / completion of labeling [3]: ≤ 5 min
CN1CCc2cc3c(cc21)[Si](C)(C)c1cc2c(cc1C31c3cc(C(=O)NCCOCCOCCCCCCCl)ccc3C(=O)N1C#N)CCN2C [compound 168] | 0.18 |  | 340 M⁻¹ cm⁻¹ |  |  |  | 0.24 | ε^SDS [1, 4]: 12,000^c M^−1cm^−1; ε^protein (SNAP-Halo-tag): 52,000 M^−1cm^−1; λabs (SNAP-Halo-tag): 700 nm; λem (SNAP-Halo-tag): 720 nm; F/F0 (SNAP-Halo-tag; ratio of fluorescence intensities at 720 nm in the presence and absence of SNAP-Halo-tag): 650 ± 5.8^e; increase in absorbance (SNAP-Halo-tag; [6]): 150 fold; increase in fluorescence intensity (SNAP-Halo-tag; [6]): 650 fold; Fnuc./Fcyt. [3]: 47 ± 3.4^f; nuclei to cytosol signal ratio (Fnuc/Fcyt) [3]: 47; time to staining / saturation / completion of labeling [3]: ≤ 10 min
